# Source: paper PMC5218480 (PLoS ONE, 2017)
# Tested on: MV-4-11 cells
# Test: Gene expression microarray analysis (Affymetrix PrimeView) and GSEA
# Format: cell-based, human
# Design: RFU PODN (11730768_x_at) / Fold change /veh PODN (11730768_x_at) / RFU LINC00158 (11744669_a_at) / Fold change /veh LINC00158 (11744669_a_at) / RFU DUSP10 (11751237_a_at) / Fold change /veh DUSP10 (11751237_a_at) / RFU ID3 (11757404_x_at) / Fold change /veh ID3 (11757404_x_at) / RFU PLEKHG5 (11737974_s_at) / Fold change /veh PLEKHG5 (11737974_s_at) / RFU LRRC4B (11730491_at) / Fold change /veh LRRC4B (11730491_at) / RFU GIMAP4 (11747438_a_at) / Fold change /veh GIMAP4 (11747438_a_at) / RFU KRT8 (11758183_x_at) / Fold change /veh KRT8 (11758183_x_at) / RFU CNN1 (11734310_a_at) / Fold change /veh CNN1 (11734310_a_at) / RFU VPS37D (11726825_at) / Fold change /veh VPS37D (11726825_at) / RFU C10orf10 (11716522_x_at) / Fold change /veh C10orf10 (11716522_x_at) / RFU KIR2DL2 /// KIR2DL4 /// KIR2DL5A /// KIR2DL5B /// KIR2DS1 /// KIR2DS2 /// KIR2DS3 /// KIR2DS4 /// KIR3DL3 /// KIR3DL3 /// KIR3DS1 (11738374_at) / Fold change /veh KIR2DL2 /// KIR2DL4 /// KIR2DL5A /// KIR2DL5B /// KIR2DS1 /// KIR2DS2 /// KIR2DS3 /// KIR2DS4 /// KIR3DL3 /// KIR3DL3 /// KIR3DS1 (11738374_at) / RFU C1QL1 (11718748_at) / Fold change /veh C1QL1 (11718748_at) / RFU TMPRSS4 (11747572_a_at) / Fold change /veh TMPRSS4 (11747572_a_at) / RFU HAMP (11756126_x_at) / Fold change /veh HAMP (11756126_x_at) / RFU RNFT2 (11725882_a_at) / Fold change /veh RNFT2 (11725882_a_at) / RFU NR4A2 (11747474_a_at) / Fold change /veh NR4A2 (11747474_a_at) / RFU ABCC12 (11746883_a_at) / Fold change /veh ABCC12 (11746883_a_at) / RFU TMEM136 (11760407_x_at) / Fold change /veh TMEM136 (11760407_x_at) / RFU CLDN22 /// WWC2 (11732394_at) / Fold change /veh CLDN22 /// WWC2 (11732394_at) / RFU HLA-DPB1 (11760878_x_at) / Fold change /veh HLA-DPB1 (11760878_x_at) / RFU SPINT1 (11716480_a_at) / Fold change /veh SPINT1 (11716480_a_at) / RFU GAP43 (11754022_s_at) / Fold change /veh GAP43 (11754022_s_at) / RFU A4GNT (11735810_at) / Fold change /veh A4GNT (11735810_at) / RFU PRB3 (11715151_x_at) / Fold change /veh PRB3 (11715151_x_at) / RFU TUBB4B (11761932_at) / Fold change /veh TUBB4B (11761932_at) / RFU CAPN14 (11732068_a_at) / Fold change /veh CAPN14 (11732068_a_at) / RFU TMCC2 (11721928_a_at) / Fold change /veh TMCC2 (11721928_a_at) / RFU IRGQ (11745062_a_at) / Fold change /veh IRGQ (11745062_a_at) / RFU FAM174B (11720279_a_at) / Fold change /veh FAM174B (11720279_a_at) / RFU TMPRSS4 (11748680_a_at) / Fold change /veh TMPRSS4 (11748680_a_at) / RFU FAM212B (11763350_a_at) / Fold change /veh FAM212B (11763350_a_at) / RFU PLEKHG5 (11743358_a_at) / Fold change /veh PLEKHG5 (11743358_a_at) / RFU ZSCAN30 (11745921_a_at) / Fold change /veh ZSCAN30 (11745921_a_at) / RFU CMKLR1 (11741424_a_at) / Fold change /veh CMKLR1 (11741424_a_at) / RFU LOC101060620 /// MAPK8IP1 (11723275_at) / Fold change /veh LOC101060620 /// MAPK8IP1 (11723275_at) / RFU SPTSSB (11747773_x_at) / Fold change /veh SPTSSB (11747773_x_at) / RFU PRSS12 (11739890_at) / Fold change /veh PRSS12 (11739890_at) / RFU BIN1 (11741810_x_at) / Fold change /veh BIN1 (11741810_x_at) / RFU WNT11 (11732464_a_at) / Fold change /veh WNT11 (11732464_a_at) / RFU C10orf10 (11716521_a_at) / Fold change /veh C10orf10 (11716521_a_at) / RFU C5orf56 (11738089_at) / Fold change /veh C5orf56 (11738089_at) / RFU CYB561 (11721691_x_at) / Fold change /veh CYB561 (11721691_x_at) / RFU ANKRD19P (11752326_a_at) / Fold change /veh ANKRD19P (11752326_a_at) / RFU OR2T12 /// OR2T33 /// OR2T8 (11738714_s_at) / Fold change /veh OR2T12 /// OR2T33 /// OR2T8 (11738714_s_at) / RFU VCAN (11748164_a_at) / Fold change /veh VCAN (11748164_a_at) / RFU JSRP1 (11732532_at) / Fold change /veh JSRP1 (11732532_at) / RFU KRTAP10-11 (11738290_x_at) / Fold change /veh KRTAP10-11 (11738290_x_at) / RFU MYO3A (11730013_a_at) / Fold change /veh MYO3A (11730013_a_at) / RFU EBF3 (11725865_a_at) / Fold change /veh EBF3 (11725865_a_at) / RFU CAMK2N1 (11719241_x_at) / Fold change /veh CAMK2N1 (11719241_x_at) / RFU C5orf56 (11738088_a_at) / Fold change /veh C5orf56 (11738088_a_at) / RFU OLFML3 (11715873_a_at) / Fold change /veh OLFML3 (11715873_a_at) / RFU LOC100653217 /// NTM (11731650_a_at) / Fold change /veh LOC100653217 /// NTM (11731650_a_at) / RFU MAPK11 (11762145_a_at) / Fold change /veh MAPK11 (11762145_a_at) / RFU FIZ1 (11724087_x_at) / Fold change /veh FIZ1 (11724087_x_at) / RFU OASL (11726364_x_at) / Fold change /veh OASL (11726364_x_at) / RFU SOX15 (11748057_x_at) / Fold change /veh SOX15 (11748057_x_at) / RFU CD79A (11719716_a_at) / Fold change /veh CD79A (11719716_a_at) / RFU HIST1H1D (11736915_at) / Fold change /veh HIST1H1D (11736915_at) / RFU CASKIN2 (11723855_a_at) / Fold change /veh CASKIN2 (11723855_a_at) / RFU LOC730098 (11760151_x_at) / Fold change /veh LOC730098 (11760151_x_at) / RFU OR4N2 (11742367_at) / Fold change /veh OR4N2 (11742367_at) / RFU PRRT2 (11749266_a_at) / Fold change /veh PRRT2 (11749266_a_at) / RFU SNX32 (11753110_a_at) / Fold change /veh SNX32 (11753110_a_at) / RFU CDHR5 (11726645_a_at) / Fold change /veh CDHR5 (11726645_a_at) / RFU RCAN1 (11760418_a_at) / Fold change /veh RCAN1 (11760418_a_at) / RFU FAM167A (11723789_a_at) / Fold change /veh FAM167A (11723789_a_at) / RFU FAM26E (11764081_at) / Fold change /veh FAM26E (11764081_at) / RFU ISYNA1 (11749810_s_at) / Fold change /veh ISYNA1 (11749810_s_at) / RFU ACY1 (11761880_at) / Fold change /veh ACY1 (11761880_at) / RFU 11764098_at / Fold change /veh 11764098_at / RFU SAMD14 (11745864_x_at) / Fold change /veh SAMD14 (11745864_x_at) / RFU NPB (11741838_a_at) / Fold change /veh NPB (11741838_a_at) / RFU TMPRSS6 (11731388_a_at) / Fold change /veh TMPRSS6 (11731388_a_at) / RFU KRTAP10-2 (11738614_at) / Fold change /veh KRTAP10-2 (11738614_at) / RFU ARHGAP8 /// PRR5-ARHGAP8 (11727945_x_at) / Fold change /veh ARHGAP8 /// PRR5-ARHGAP8 (11727945_x_at) / RFU KRTAP5-7 /// NADSYN1 (11734609_at) / Fold change /veh KRTAP5-7 /// NADSYN1 (11734609_at) / RFU RASL12 (11751679_a_at) / Fold change /veh RASL12 (11751679_a_at) / RFU CDKN2B (11736163_a_at) / Fold change /veh CDKN2B (11736163_a_at) / RFU PRF1 (11729649_at) / Fold change /veh PRF1 (11729649_at) / RFU, ZNF638 /// ZNF638-IT1 / Fold change vs veh, ZNF638 /// ZNF638-IT1 / RFU, PANK3 / Fold change vs veh, PANK3 / RFU, SH3YL1 / Fold change vs veh, SH3YL1 / RFU, ZEB2 / Fold change vs veh, ZEB2 / RFU, NRIP1 / Fold change vs veh, NRIP1 / RFU, PTTG1IP / Fold change vs veh, PTTG1IP / RFU, CAPN2 / Fold change vs veh, CAPN2 / RFU, MED14 / Fold change vs veh, MED14 / RFU, SNORA58 / Fold change vs veh, SNORA58 / RFU, C1orf63 / Fold change vs veh, C1orf63 / RFU, LRRFIP1 / Fold change vs veh, LRRFIP1 / RFU, NDUFAF7 / Fold change vs veh, NDUFAF7 / RFU, SLC12A2 / Fold change vs veh, SLC12A2 / RFU, IBTK / Fold change vs veh, IBTK / RFU, ESF1 / Fold change vs veh, ESF1 / Fold change vs veh, TMEM50B / RFU, TAOK1 / Fold change vs veh, TAOK1 / RFU, ACBD3 / Fold change vs veh, ACBD3 / RFU, TMA16 / Fold change vs veh, TMA16 / RFU, RWDD3 / Fold change vs veh, RWDD3 / RFU, BCAT1 / Fold change vs veh, BCAT1 / RFU, EDEM3 / Fold change vs veh, EDEM3 / RFU, TMEM33 / Fold change vs veh, TMEM33 / RFU, WDR75 / Fold change vs veh, WDR75 / RFU, AHCTF1 / Fold change vs veh, AHCTF1 / RFU, TFRC / Fold change vs veh, TFRC / RFU, ZDHHC17 / Fold change vs veh, ZDHHC17 / RFU, NOM1 / Fold change vs veh, NOM1 / RFU, ARL8B / Fold change vs veh, ARL8B / RFU, ZBTB11 / Fold change vs veh, ZBTB11 / RFU, TAMM41 / Fold change vs veh, TAMM41 / RFU, KIAA1704 /// LOC100996395 / Fold change vs veh, KIAA1704 /// LOC100996395 / RFU, ING1 / Fold change vs veh, ING1 / RFU, TRMT61B / Fold change vs veh, TRMT61B / RFU, FUBP3 / Fold change vs veh, FUBP3 / RFU, TP53 / Fold change vs veh, TP53 / RFU, TNKS2 / Fold change vs veh, TNKS2 / RFU, ZFP14 / Fold change vs veh, ZFP14 / RFU, ACTR2 / Fold change vs veh, ACTR2 / RFU, PPP3R1 / Fold change vs veh, PPP3R1 / RFU, PIK3R1 / Fold change vs veh, PIK3R1 / RFU, HNRNPA1 / Fold change vs veh, HNRNPA1 / RFU, RNF170 / Fold change vs veh, RNF170 / RFU, ZNF28 / Fold change vs veh, ZNF28 / RFU, RNGTT / Fold change vs veh, RNGTT / RFU, OGT / Fold change vs veh, OGT / RFU, BRD1 / Fold change vs veh, BRD1 / RFU, MARS / Fold change vs veh, MARS / RFU, ZNF655 / Fold change vs veh, ZNF655 / RFU, FAHD1 / Fold change vs veh, FAHD1 / RFU, BDP1 / Fold change vs veh, BDP1 / RFU, LRRCC1 / Fold change vs veh, LRRCC1 / RFU, ARID1A / Fold change vs veh, ARID1A / RFU, ZNF146 / Fold change vs veh, ZNF146 / RFU, ZNF330 / Fold change vs veh, ZNF330 / RFU, GPN3 / Fold change vs veh, GPN3 / RFU, C9orf123 / Fold change vs veh, C9orf123 / RFU, N4BP2L2 / Fold change vs veh, N4BP2L2 / RFU, ARFIP1 / Fold change vs veh, ARFIP1 / RFU, FAM179B / Fold change vs veh, FAM179B / RFU, BCL10 / Fold change vs veh, BCL10 / RFU, UHRF1BP1L / Fold change vs veh, UHRF1BP1L / RFU, BET1 / Fold change vs veh, BET1 / RFU, CNOT2 / Fold change vs veh, CNOT2 / RFU, ZNF268 / Fold change vs veh, ZNF268 / Fold change vs veh, ZNF507 / RFU, DGCR2 / Fold change vs veh, DGCR2 / RFU, WDSUB1 / Fold change vs veh, WDSUB1 / Fold change vs veh, HSP90B1 /// MIR3652 / RFU, ADSS / Fold change vs veh, ADSS / RFU, GK / Fold change vs veh, GK / RFU, ZNF148 / Fold change vs veh, ZNF148 / RFU, TAF9 / Fold change vs veh, TAF9 / RFU, SLC1A5 / Fold change vs veh, SLC1A5 / RFU, SLMO2 / Fold change vs veh, SLMO2 / RFU, ABCC4 / Fold change vs veh, ABCC4 / RFU, LOC101060439 /// RAP1B / Fold change vs veh, LOC101060439 /// RAP1B / RFU, RFX7 / Fold change vs veh, RFX7 / RFU, GTPBP10 / Fold change vs veh, GTPBP10 / RFU, CNEP1R1 / Fold change vs veh, CNEP1R1 / RFU, BIVM-ERCC5 /// ERCC5 / Fold change vs veh, BIVM-ERCC5 /// ERCC5 / RFU, ILF3 / Fold change vs veh, ILF3 / RFU 11762660_at / Fold change /veh 11762660_at / RFU VCAN (11757783_s_at) / Fold change /veh VCAN (11757783_s_at) / RFU DDX43 (11728927_at) / Fold change /veh DDX43 (11728927_at) / RFU KRT8 (11758188_x_at) / Fold change /veh KRT8 (11758188_x_at) / RFU NKD1 (11759106_at) / Fold change /veh NKD1 (11759106_at) / RFU SRD5A1 (11742802_a_at) / Fold change /veh SRD5A1 (11742802_a_at) / RFU TPSAB1 /// TPSB2 (11721975_s_at) / Fold change /veh TPSAB1 /// TPSB2 (11721975_s_at) / RFU GSTM3 (11746129_a_at) / Fold change /veh GSTM3 (11746129_a_at) / RFU IL23R (11737362_x_at) / Fold change /veh IL23R (11737362_x_at) / RFU TMEM51 (11727254_a_at) / Fold change /veh TMEM51 (11727254_a_at) / RFU PIWIL2 (11732686_x_at) / Fold change /veh PIWIL2 (11732686_x_at) / RFU ORM1 (11744905_x_at) / Fold change /veh ORM1 (11744905_x_at) / RFU CCDC152 (11743942_at) / Fold change /veh CCDC152 (11743942_at) / RFU ECM1 (11717891_a_at) / Fold change /veh ECM1 (11717891_a_at) / RFU IL23R (11748794_a_at) / Fold change /veh IL23R (11748794_a_at) / RFU TNFAIP8L3 (11732012_x_at) / Fold change /veh TNFAIP8L3 (11732012_x_at) / RFU MBOAT4 (11741988_at) / Fold change /veh MBOAT4 (11741988_at) / RFU 11764193_at / Fold change /veh 11764193_at / RFU TMEM53 (11763286_at) / Fold change /veh TMEM53 (11763286_at) / RFU MAGEB2 (11727129_at) / Fold change /veh MAGEB2 (11727129_at) / RFU TMEM200A (11744735_a_at) / Fold change /veh TMEM200A (11744735_a_at) / RFU CCDC152 (11751479_a_at) / Fold change /veh CCDC152 (11751479_a_at) / RFU FAM211A (11726209_a_at) / Fold change /veh FAM211A (11726209_a_at) / RFU RGS16 (11746705_a_at) / Fold change /veh RGS16 (11746705_a_at) / RFU VCAN (11755009_s_at) / Fold change /veh VCAN (11755009_s_at) / RFU RHOB (11743442_s_at) / Fold change /veh RHOB (11743442_s_at) / RFU RGS16 (11720943_a_at) / Fold change /veh RGS16 (11720943_a_at) / RFU RGS16 (11720944_at) / Fold change /veh RGS16 (11720944_at) / RFU, VPS4B / Fold change vs veh, VPS4B / RFU, CREB1 / Fold change vs veh, CREB1 / RFU, DNAJC13 / Fold change vs veh, DNAJC13 / RFU, GNAQ / Fold change vs veh, GNAQ / RFU, CDK5R1 / Fold change vs veh, CDK5R1 / RFU, ZRANB3 / Fold change vs veh, ZRANB3 / RFU, CUL4A / Fold change vs veh, CUL4A / RFU, CCNY / Fold change vs veh, CCNY / RFU, UFL1 / Fold change vs veh, UFL1 / RFU, COG3 / Fold change vs veh, COG3 / RFU, DIAPH2 / Fold change vs veh, DIAPH2 / RFU, SKA2 / Fold change vs veh, SKA2 / RFU, AFF3 / Fold change vs veh, AFF3 / RFU, LMF1 / Fold change vs veh, LMF1 / RFU, IPO11 / Fold change vs veh, IPO11 / RFU, DFFB / Fold change vs veh, DFFB / RFU, FOXP1 / Fold change vs veh, FOXP1 / RFU, CARD8 / Fold change vs veh, CARD8 / RFU, STRN3 / Fold change vs veh, STRN3 / RFU, ADK / Fold change vs veh, ADK / RFU, RASSF2 / Fold change vs veh, RASSF2 / RFU, WIPF1 / Fold change vs veh, WIPF1 / RFU, LARP1B / Fold change vs veh, LARP1B / RFU, RASA1 / Fold change vs veh, RASA1 / RFU, RB1 / Fold change vs veh, RB1 / RFU, PPFIA1 / Fold change vs veh, PPFIA1 / RFU, MAT2A / Fold change vs veh, MAT2A / RFU, CCT5 / Fold change vs veh, CCT5 / RFU, WDR92 / Fold change vs veh, WDR92 / RFU, CUX1 / Fold change vs veh, CUX1 / RFU, TTC7A / Fold change vs veh, TTC7A / RFU, TMEM135 / Fold change vs veh, TMEM135 / RFU, DEPTOR / Fold change vs veh, DEPTOR / RFU, CPM / Fold change vs veh, CPM / RFU, DNAJB6 / Fold change vs veh, DNAJB6 / RFU, CACNA2D3 / Fold change vs veh, CACNA2D3 / RFU, DTX4 / Fold change vs veh, DTX4 / RFU, TFCP2 / Fold change vs veh, TFCP2 / RFU, GMCL1 /// GMCL1P1 / Fold change vs veh, GMCL1 /// GMCL1P1 / RFU, AEBP2 / Fold change vs veh, AEBP2 / RFU, SNHG1 /// SNORD22 /// SNORD25 /// SNORD26 /// SNORD27 /// SNORD28 /// SNORD29 /// SNORD31 / Fold change vs veh, SNHG1 /// SNORD22 /// SNORD25 /// SNORD26 /// SNORD27 /// SNORD28 /// SNORD29 /// SNORD31 / Fold change (Aza/veh), C12orf56 (ProbeSet 11735607_a_at) / Fold change (ACY-1035/veh), C12orf56 (ProbeSet 11735607_a_at) / Fold change (Aza/veh), FGFR1OP (ProbeSet 11751329_s_at) / Fold change (ACY-1035/veh), FGFR1OP (ProbeSet 11751329_s_at) / Fold change (Aza/veh), VPS36 (ProbeSet 11739960_a_at) / Fold change (ACY-1035/veh), VPS36 (ProbeSet 11739960_a_at) / RFU SYPL1 (11715823_x_at) / Fold change /veh SYPL1 (11715823_x_at) / RFU IGFBP7 (11715501_s_at) / Fold change /veh IGFBP7 (11715501_s_at) / RFU REEP3 (11722064_at) / Fold change /veh REEP3 (11722064_at) / RFU IGLL1 (11728026_x_at) / Fold change /veh IGLL1 (11728026_x_at): dose or concentration left out as unconfirmed
# Conditions: MV-4-11 cells, 48 hours
smiles,measurement,value
Nc1ncn([C@@H]2O[C@H](CO)[C@@H](O)[C@H]2O)c(=O)n1 [azacitidine],Fold change /veh DUSP10 (11751237_a_at),1.16
